Results published in patent US7964376B2, “Chimeric proteins and their use in methods to screen for sweet taste modulators” (Givaudan SA, priority 2006, dated 2011).
Residues, ends and D or L forms follow the SMILES beside them.

How the values were obtained:
[1] = tested on: Mock transfected HEK293T/Gα16-gustducin 44 cells; assay: Fluo-4 calcium assay, negative control mock transfection (Examples 6a, 6b); format: cell-based, human; details: mean of six replicates, Calcium Chloride (2 mM), Sucralose (0.5 mM), perillartine (50 μM); for Neg. control (mock transfection) AVG (net increase in fluorescence over baseline): Example 6a, aspartame (0.85 mM), cinnamonitrile (100 EM), cyclamate (1 mM), NDHC (0.33 mM); for Neg. control (mock transfection) AVG (mean ΔF/F): Example 6b
Text: (§1) The following ligands were used for to stimulate the transfected cells in the concentrations as indicated in brackets: […]

hCaSR = target: T1, hCaSR (Homo sapiens, UniProt P41180); assay: Fluo-4 calcium assay, transiently transfected HEK293T/Gα16-gustducin 44 cells (Example 6a); format: cell-based; details: for hCaSR AVG (net increase in fluorescence over baseline): mean of six replicates, Calcium Chloride (2 mM), Sucralose (0.5 mM), aspartame (0.85 mM), perillartine (50 μM), cinnamonitrile (100 EM), cyclamate (1 mM), NDHC (0.33 mM)
T1 sequence (P41180 20-1078): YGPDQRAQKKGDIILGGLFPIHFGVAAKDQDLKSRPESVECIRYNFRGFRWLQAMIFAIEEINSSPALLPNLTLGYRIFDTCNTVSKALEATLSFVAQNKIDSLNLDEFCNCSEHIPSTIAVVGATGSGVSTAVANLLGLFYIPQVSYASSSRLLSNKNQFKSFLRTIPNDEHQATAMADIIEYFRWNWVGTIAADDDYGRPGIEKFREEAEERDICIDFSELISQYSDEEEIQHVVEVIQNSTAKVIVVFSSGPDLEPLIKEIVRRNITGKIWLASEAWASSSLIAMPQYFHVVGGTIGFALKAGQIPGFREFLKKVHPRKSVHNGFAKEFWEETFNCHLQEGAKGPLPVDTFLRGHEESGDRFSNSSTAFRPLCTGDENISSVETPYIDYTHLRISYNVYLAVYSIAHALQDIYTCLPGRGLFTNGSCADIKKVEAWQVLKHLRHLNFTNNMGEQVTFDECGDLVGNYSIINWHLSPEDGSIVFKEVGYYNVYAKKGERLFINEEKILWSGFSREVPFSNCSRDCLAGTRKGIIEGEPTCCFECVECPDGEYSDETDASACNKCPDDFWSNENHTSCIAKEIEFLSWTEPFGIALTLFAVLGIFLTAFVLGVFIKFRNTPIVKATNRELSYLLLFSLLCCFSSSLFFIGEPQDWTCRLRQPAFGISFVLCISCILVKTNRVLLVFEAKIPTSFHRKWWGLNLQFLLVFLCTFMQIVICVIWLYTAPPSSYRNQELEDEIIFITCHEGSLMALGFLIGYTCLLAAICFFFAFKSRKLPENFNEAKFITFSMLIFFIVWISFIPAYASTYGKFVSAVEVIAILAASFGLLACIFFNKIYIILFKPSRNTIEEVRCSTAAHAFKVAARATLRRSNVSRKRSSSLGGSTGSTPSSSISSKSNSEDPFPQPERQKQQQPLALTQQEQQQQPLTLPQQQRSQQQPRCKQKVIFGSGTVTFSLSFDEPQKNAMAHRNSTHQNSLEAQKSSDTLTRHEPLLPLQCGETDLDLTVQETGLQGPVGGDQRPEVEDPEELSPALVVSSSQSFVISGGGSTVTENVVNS
Text: The hCaSR vector is used as positive control for a GPCR that is sensitive to calcium, as it is sensitive to calcium and the calcium binding site lies in the VFT of this receptor, which is where the VFT for the chimera is derived from.
as §1

CSR::T1R2-b homomer = target: T2, CSR::T1R2-b homomer (Homo sapiens, UniProt P41180+Q8TE23); assay: Fluo-4 calcium assay, transiently transfected HEK293T/Gα16-gustducin 44 cells (Example 6b); details: mean of six replicates; Calcium Chloride (2 mM), Sucralose (0.5 mM), perillartine (50 μM)
T2 sequence (P41180+Q8TE23 with tags, fused parts or gaps): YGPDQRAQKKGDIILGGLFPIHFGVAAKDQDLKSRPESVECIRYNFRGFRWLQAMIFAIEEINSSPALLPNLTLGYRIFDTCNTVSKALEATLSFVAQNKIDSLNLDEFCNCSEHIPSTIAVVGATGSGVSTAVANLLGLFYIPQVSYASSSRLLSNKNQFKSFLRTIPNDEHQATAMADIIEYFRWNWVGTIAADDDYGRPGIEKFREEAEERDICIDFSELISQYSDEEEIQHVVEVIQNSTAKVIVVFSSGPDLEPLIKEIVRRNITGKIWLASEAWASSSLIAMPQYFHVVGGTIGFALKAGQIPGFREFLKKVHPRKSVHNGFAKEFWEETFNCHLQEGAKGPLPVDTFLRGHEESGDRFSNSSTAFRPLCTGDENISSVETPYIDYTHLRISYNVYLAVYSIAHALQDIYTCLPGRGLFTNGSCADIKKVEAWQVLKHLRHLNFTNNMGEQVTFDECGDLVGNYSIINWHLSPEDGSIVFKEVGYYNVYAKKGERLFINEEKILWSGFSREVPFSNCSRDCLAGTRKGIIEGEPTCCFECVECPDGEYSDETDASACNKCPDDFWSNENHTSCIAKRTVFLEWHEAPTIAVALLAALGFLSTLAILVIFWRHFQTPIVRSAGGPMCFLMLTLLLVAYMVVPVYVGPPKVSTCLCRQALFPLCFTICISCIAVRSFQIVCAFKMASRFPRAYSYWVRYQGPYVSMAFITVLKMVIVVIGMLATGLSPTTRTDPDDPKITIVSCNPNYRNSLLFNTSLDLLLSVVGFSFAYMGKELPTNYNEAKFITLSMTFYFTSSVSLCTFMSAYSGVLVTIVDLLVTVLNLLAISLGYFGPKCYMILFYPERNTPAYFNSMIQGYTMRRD
Procedure: (§2) Fluo-4 is a fluorescent indicator for intracellular calcium and allows to determine changes in the calcium concentration, in particular an increase in response to receptor activation occurring after ligand addition.
(§3) Black, clear-bottom 96-well plates were used for all assays. They were seeded the day before with 8500 transfected cells per well and maintained at 37° C. overnight in an a growth medium appropriate for the cells used. For HEK293 cells, Dulbecco's Modified Eagle medium containing high glucose, L-glutamine, pyroxidine hydrochloride, and supplemented with 10% fetal bovine serum was used for growth and maintenance of the HEK293 cells.
(§4) After the initial 1 hour loading period, the plates were washed 5 times with 100 μl per well of reduced calcium C1 buffer using an automated plate washer (BioTek) and after washing, the plate was further incubated for 30 minutes at room temperature in the dark to allow for complete de-esterification of the Fluo-4-AM. The buffer solutions were discarded, the plate was washed 5 times with 100 μl reduced calcium C1 wash buffer and finally the cells were reconstituted in 180 μl of reduced calcium C1 wash buffer.
(§5) For assay reading, the plate was placed in a FLIPR (fluorescence imaging plate reader (FLIPR-Tetra, Molecular Devices)), and receptor activation was initiated following addition of 20 μl of a 10× concentrated ligand stock solution, which were prepared in reduced calcium C1 buffer.
(§6) Receptor activation is given in relative fluorescence units (RFU) and is defined by the following equation: Fluorescence Increase=Maximum Fluorescence−baseline fluorescence, wherein the baseline fluorescence represents the mean fluorescence calculated for the first 10 to 15 seconds prior to ligand addition.
As a negative control, mock transfected cells were exposed to the same concentration of ligand and the concentration of calcium traces not corresponding to a signal was determined.
(§7) The calcium mobilization signals obtained are increase in peak fluorescence (F) normalized to the baseline fluorescence (F0). […]

[2] = target: T3, T1R2/T1R3 sweet heterodimer (Homo sapiens, UniProt Q7RTX0+Q8TE23, C757R); assay: Fluo-4 calcium assay, transiently transfected HEK293T/Gα16-gustducin 44 cells (Examples 6a, 6b); format: cell-based; details: Example 6b; mean of six replicates; Calcium Chloride (2 mM), Sucralose (0.5 mM), perillartine (50 μM)
T3 construct: expressed in transfected cells; host or cells: HEK293T cells stably expressing Ga16-gustducin 44, transient co-transfection of pcDNA3.1 constructs
T3 sequence (Q8TE23 20-839): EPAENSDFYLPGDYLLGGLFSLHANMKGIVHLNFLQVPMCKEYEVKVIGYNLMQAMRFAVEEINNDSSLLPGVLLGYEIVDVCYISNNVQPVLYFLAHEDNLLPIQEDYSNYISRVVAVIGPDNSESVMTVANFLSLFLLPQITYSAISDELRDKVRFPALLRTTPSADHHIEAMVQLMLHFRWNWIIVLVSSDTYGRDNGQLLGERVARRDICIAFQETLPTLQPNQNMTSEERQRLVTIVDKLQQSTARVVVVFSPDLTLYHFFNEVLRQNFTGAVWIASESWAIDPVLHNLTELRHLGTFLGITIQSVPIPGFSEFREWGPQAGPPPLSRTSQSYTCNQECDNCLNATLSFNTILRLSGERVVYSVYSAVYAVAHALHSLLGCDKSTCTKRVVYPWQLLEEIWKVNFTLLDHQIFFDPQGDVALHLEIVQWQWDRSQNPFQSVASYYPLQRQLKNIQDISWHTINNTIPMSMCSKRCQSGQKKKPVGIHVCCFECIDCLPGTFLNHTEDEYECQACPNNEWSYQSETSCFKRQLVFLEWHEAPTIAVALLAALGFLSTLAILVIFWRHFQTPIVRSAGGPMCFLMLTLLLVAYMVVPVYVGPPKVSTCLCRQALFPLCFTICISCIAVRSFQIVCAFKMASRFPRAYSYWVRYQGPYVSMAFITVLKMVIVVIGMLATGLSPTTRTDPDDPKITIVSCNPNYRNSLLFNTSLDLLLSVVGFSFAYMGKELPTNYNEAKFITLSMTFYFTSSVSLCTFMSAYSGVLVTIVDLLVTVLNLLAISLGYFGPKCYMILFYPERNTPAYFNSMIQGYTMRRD
T3 sequence (Q7RTX0 21-852 C757R): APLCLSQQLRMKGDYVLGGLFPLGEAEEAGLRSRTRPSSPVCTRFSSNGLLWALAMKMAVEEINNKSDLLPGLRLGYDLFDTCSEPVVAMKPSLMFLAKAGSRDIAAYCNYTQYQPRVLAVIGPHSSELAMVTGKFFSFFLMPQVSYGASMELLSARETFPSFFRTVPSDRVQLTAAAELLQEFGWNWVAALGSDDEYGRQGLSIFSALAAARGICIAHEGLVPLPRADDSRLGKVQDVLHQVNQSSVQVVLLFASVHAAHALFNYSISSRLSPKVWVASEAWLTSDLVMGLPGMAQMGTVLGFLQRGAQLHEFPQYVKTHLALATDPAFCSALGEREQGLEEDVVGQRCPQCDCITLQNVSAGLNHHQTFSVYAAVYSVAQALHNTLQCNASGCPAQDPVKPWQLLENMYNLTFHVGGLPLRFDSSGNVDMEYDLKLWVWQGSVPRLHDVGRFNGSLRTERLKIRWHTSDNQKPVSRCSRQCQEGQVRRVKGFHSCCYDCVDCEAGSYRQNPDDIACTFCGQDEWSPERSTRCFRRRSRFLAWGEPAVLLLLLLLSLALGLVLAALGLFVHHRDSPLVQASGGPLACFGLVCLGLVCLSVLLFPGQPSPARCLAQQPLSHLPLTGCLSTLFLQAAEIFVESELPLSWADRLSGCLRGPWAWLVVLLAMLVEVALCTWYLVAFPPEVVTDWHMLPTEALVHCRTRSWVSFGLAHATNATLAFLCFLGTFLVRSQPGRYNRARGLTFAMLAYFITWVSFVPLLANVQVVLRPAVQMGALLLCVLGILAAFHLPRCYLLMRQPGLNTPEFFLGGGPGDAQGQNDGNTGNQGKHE
Text: as §1

[3] = target: T4, CSR::T1R2-b/CSR::T1R3-b chimeric heterodimer (Homo sapiens, UniProt P41180+Q7RTX0+Q8TE23); assay: Fluo-4 calcium assay, transiently transfected HEK293T/Gα16-gustducin 44 cells (Example 6b); details: mean of six replicates; Calcium Chloride (2 mM), Sucralose (0.5 mM), perillartine (50 μM)
T4 sequence (P41180+Q8TE23 with tags, fused parts or gaps): T2 sequence (P41180+Q8TE23 with tags, fused parts or gaps)
T4 sequence (P41180+Q7RTX0 with tags, fused parts or gaps): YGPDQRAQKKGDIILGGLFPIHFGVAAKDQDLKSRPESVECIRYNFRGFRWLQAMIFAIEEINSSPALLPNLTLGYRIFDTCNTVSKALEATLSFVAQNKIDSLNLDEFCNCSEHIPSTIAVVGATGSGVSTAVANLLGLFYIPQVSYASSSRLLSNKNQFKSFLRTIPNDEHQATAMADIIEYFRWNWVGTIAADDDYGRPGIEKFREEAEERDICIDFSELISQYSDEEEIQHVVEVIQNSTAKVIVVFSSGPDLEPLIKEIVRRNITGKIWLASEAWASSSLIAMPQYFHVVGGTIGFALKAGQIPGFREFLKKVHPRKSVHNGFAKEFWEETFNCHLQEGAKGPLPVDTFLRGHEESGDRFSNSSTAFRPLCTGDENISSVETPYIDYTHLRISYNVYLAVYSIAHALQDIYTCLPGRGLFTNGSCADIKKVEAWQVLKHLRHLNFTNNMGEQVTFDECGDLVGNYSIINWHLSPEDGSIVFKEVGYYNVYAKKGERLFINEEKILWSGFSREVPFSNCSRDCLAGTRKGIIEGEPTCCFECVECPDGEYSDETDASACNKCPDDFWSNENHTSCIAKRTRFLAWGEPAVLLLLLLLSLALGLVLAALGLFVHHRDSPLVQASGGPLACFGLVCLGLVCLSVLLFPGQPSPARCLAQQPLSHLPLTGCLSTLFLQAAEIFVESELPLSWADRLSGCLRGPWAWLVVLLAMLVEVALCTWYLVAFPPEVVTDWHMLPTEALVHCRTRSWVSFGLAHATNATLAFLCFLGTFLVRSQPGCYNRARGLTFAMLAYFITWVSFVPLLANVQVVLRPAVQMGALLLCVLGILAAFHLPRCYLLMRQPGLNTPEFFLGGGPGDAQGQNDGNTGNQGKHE
Procedure: as §2, §3, §4, §5, §6
As a negative control, mock transfected cells were exposed to the same concentration of ligand and the concentration of calcium traces not corresponding to a signal was determined. […]
as §7

Row | Structure (SMILES) | Neg. control (mock transfection) AVG (net increase in fluorescence over baseline) [1] [RFU] | hCaSR AVG (net increase in fluorescence over baseline) (hCaSR) [RFU] | Neg. control (mock transfection) AVG (mean ΔF/F) [1] | CSR::R2-b alone AVG (mean ΔF/F) (CSR::T1R2-b homomer) | response of hCaSR (in words) (hCaSR; Example 6a) | T1R2/T1R3 AVG (mean ΔF/F) [2] | CSR::T1R2-b/CSR::T1R3-b AVG (mean ΔF/F) [3]
1 | COC(=O)[C@H](Cc1ccccc1)NC(=O)[C@@H](N)CC(=O)O [Aspartame] (H-Asp-Phe-OMe) | −125 | 41 | – | – | – | – | –
2 | [Ca+2].[Cl-].[Cl-] [Calcium, Calcium Chloride] | 1570 | 7610 | 0.20 ΔF/F | 0.424 ΔF/F | responded | 0.19 ΔF/F | 0.46 ΔF/F
3 | N#CC=Cc1ccccc1 [Cinnamonitrile] | – | 197 | – | – | – | – | –
4 | C=C(C)[C@@H]1CC=C(/C=N/O)CC1 [Perillartine] | −379 | 73 | 0.06 ΔF/F | 0.11 ΔF/F | – | 0.5 ΔF/F | 0.169 ΔF/F
5 | OC[C@H]1O[C@H](O[C@]2(CCl)O[C@H](CCl)[C@@H](O)[C@@H]2O)[C@H](O)[C@@H](O)[C@H]1Cl [Sucralose] | – | 22 | 0.03 ΔF/F | 0.016 ΔF/F | – | 0.12 ΔF/F | 0.017 ΔF/F
